The text below walks through data of US4868195A, “Novel enolamides, pharmaceutical compositions and methods of use thereof for activity as modulators of the arachidonic acid cascade” (Warner-Lambert Company, priority 1988, dated 1989).

SMILES strings stand for the structures. Where “and” joins values, the source holds several entries; their conditions need not be identical. Equal values may be shown once.

Assay [1] addresses T1, leukotriene receptor (guinea pig lung membranes) (Cavia porcellus, UniProt Q2NNR5).
T1 construct: 20 mg original tissue wet weight of guinea pig lung; tissue Kuiper Rabbit Farm, Gary, IN (animals); host or cells: guinea pig lung, crude membranes
T1 sequence (Q2NNR5 1-340): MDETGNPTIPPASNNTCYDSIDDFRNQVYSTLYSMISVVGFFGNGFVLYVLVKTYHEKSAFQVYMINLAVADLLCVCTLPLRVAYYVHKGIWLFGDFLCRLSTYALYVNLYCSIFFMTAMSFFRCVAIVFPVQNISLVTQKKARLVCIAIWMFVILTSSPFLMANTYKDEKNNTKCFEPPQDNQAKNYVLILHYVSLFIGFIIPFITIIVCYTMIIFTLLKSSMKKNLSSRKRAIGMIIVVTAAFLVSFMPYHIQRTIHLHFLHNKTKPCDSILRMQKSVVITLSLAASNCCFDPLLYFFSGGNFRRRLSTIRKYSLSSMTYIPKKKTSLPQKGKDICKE
Nature of the assay: Binding of ^3 H-Leukotriene D4 to Guinea Pig Lung Membranes (RBL). The following applies: 0.2 nM ^3 H-LTD4, 60 min, 25° C.; read-out: Concentration (M) for 50.0 % Inhibition, IC (RBL). The method, then: Additionally, the activity, of the compounds having the Formula I of the present invention is determined by the well known leukotriene receptor binding assay that is described by R. F. Bruns, W. J. Thomsen and T. A. Pugsley in Life Sciences, 33, 645 (1983) or the Herxheimer in vivo antiallergy test described in H. Herxheimer, J. Physiol. (London), Vol. 177, p. 251 (1952).
Binding of ^3 H-Leukotriene D4 to Guinea Pig Lung Membranes (RBL)
[14,15-^3 H]leukotriene D4 (^3 H-LTD4) (25 Ci/mmol and 40 Ci/mmol) is purchased from New England Nuclear. Unlabeled LTC4 is a gift of Ono Pharmaceuticals (Japan). LTC4, LTD4, and LTE4 are purchased as methyl esters from Paesel GmbH (Frankfurt, W. Germany). Concentrations of the Paesel leukotrienes are calculated from their absorbance at 280 nm. Leukotriene esters are saponified overnight under N2 in 3.3% potassium carbonate at room temperature. Tritiated leukotrienes are stored as received from New England Nuclear at -20° C. Ono LTC4 (5 μg/ml) is stored at -60° C. in phosphate buffer pH 6.8. Saponified Paesel leukotrienes are stored at -60° C. in 3.3% potassium carbonate (pH 9.0-9.5). Aliquots of leukotrienes are taken from stock solutions immediately after thawing, after which the stock solutions are immediately refrozen. 2-Amino-2-(hydroxymethyl)-1,3-propanediol (Tris) is Sigma pH 7.7 pre-set crystals, and dimethylsulfoxide is Aldrich Gold Label.
Preparation of crude lung membranes
Two pairs of lungs (1.3 g) from freshly sacrificed 300 g male guinea pigs (older animals gave substantially lower binding) from Kuiper Rabbit Farm, Gary, IN are disrupted with a Polytron PT 10 (setting 4) for 30 seconds in 20 ml ice-cold 50 mM Tris adjusted with HCl to pH 7.7 at 25° C. (Tris buffer), filtered through a single layer of gauze to remove connective tissue, and centrifuged at 50,000 xg for ten min. The pellet is resuspended by homogenization with a Polytron in 20 ml Tris buffer, centrifuged at 50,000 xg for ten min., resuspended, incubated at 37° C. for 30 minutes, and centrifuged again. The final pellet is resuspended in Tris buffer and either used fresh or stored at -70° C.
All incubations are in triplicate for 60 minutes at 25° C. in 12×75 mm polystyrene tubes containing 1 ml Tris buffer with 20 mg original tissue wet weight of guinea pig lung nmembranes, 0.2 nM ^3 H-LTD4 (6,000-11,000 cpm), 10 mM MgCl2, and 1% dimethylsulfoxide Leukotrienes are diluted in Tris buffer. All other test compounds dissolved at 10 mM in dimethylsulfoxide on the same day as the experiment, and diluted in dimethylsulfoxide to 100× the final incubation concentration. Control incubations receive an equal volume (10 μl) of dimethylsulfoxide; the resulting concentration of dimethylsulfoxide had no effect on binding. ^3 H-LTD4 is diluted to 2 nM in Tris buffer. The membrane suspension (20 mg/0.89 ml) contains sufficient MgCl2 to give 10 mM final concentration in the incubation. […] All additions are performed at 0° C. Immediately after the last addition, the incubation is initiated by agitating the rack of tubes on a vortex mixer and warming to 25° C. in a water bath. Tubes are vortexed at least once more during the incubation to ensure that the membranes remained suspended. Incubations are terminated after 60 minutes by filtering under reduced pressure through 25 mm Whatman GF/B filters followed by rapid washing three times with 4 ml of ice-cold Tris buffer. Filters are added to scintillation vials with 8 ml Formula 947 (New England Nuclear), left overnight, shaken, and the radioactivity counted in a scintillation counter (efficiency 40%). Nonspecific binding, defined as binding of ^3 H-LTD4 in the presence of 100 nM LTC4, is 300-500 cpm for all lots of ^3 H-LTD4. Binding to the filters in the absence of tissue is about 100 cpm, and is not affected by unlabeled LTC4. Specific binding, defined as total binding minus nonspecific binding, varied considerably from lot to lot of ^3 H-LTD4. […]

Assay [2] concerns Human Leukocyte Lipoxygenase. Nature of the assay: Human Leukocyte Lipoxygenase Assay (LDA-H). The following applies: for IC50: acetone-pentane powder enzyme, 234 nm, 24° C., 5 min preincubation, read-out: Concentration (M) for 50.0 % Inhibition, IC (LDAH). The class given is biochemical. On the procedure: Human Leukocyte Lipoxygenase Assay (LDA-H)
Whole blood is collected from normal volunteers and spun in a refrigerated centrifuge for four minutes at 1°-6° C. at 3800 g. The buffy coat is manually separated and washed twice with chilled 0.83% NH4 Cl and centrifuged at 1000 RPM for ten minutes at 4° C. The white cell is suspended in culture media-EMEM supplemented with 6% Agamma human serum, tricine buffer, and neomycin and recentrifuged at 1000 g to yield a pellet containing the leukocytes used for the preparation of the acetone pentane powder.
The acetone-pentane powder is prepared utilizing a modification of the procedure reported for human platelet lipoxygenase. See Siegel, et al, Arachidonate Metabolism via Lipoxygenase and 12-L-hydroperoxy-5 Eicosatetraenoic Acid Peroxidase Sensitive to Antiinflammatory Drugs, Proc. Natl. Acad. Sci., USA 77: 308, 1980 and D. P. Wallach and V. R. Brown, A Novel Preparation of Human Platlet Lipoxygenase, Biochem. Biophys. Acta. 663: 361, 1981. Buffy coat prepared above is resuspended in 5-7 volumes of cold 0.1M Tris buffer, pH 7.4 containing 0.154M NaCl. The suspension is centrifuged at 13,300 g for ten minutes at 4° C. The resultant pellet is retained, resuspended in five volumes of cold acetone, recentrifuged at 13,300 g and resuspended in five volumes of cold pentane. The pentane suspension is centrifuged for ten minutes at 13,300 g to give a pellet which is dried in the cold under vacuum with periodic pulverization. The dry powder is stable for several weeks when stored at -80° C.
Enzyme stock solution is prepared in the following manner. About 15 mg of the acetone-pentane powder is suspended in 4 ml of cold tris buffer (0.1M, pH 7.4), allowed to stand for five minutes, and homogenized thoroughly. The homogenate is sonicated three times for 15 seconds each time, diluted to 7 ml with cold tris buffer (0.1M, pH 7.4), and centrifuged at 4° C. for 60 minutes at 13,300 g. the supernatent is retained and diluted to a total of 10 ml with cold tris buffer (0.1M, pH 7.4) to give the stock enzyme solution. Additional dilutions of 2-50 fold are done as necessary to locate optimal enzyme reaction rate in the assay described below.
Substrate solution is prepared at 100 μM or 1.0 μM concentrations of arachidonic acid or linoleic acid in 0.1M tris buffer, pH 9.0 containing 20% ethanol.
The enzyme reaction is followed spectrophotometrically by the appearance of a conjugated diene product at 234 nm. The reaction is monitored at 24° C. using a Gilford Model 2600 spectrophotometer. […] The effects of inhibitors on the reaction are compared with control reactions run under indentical conditions. Routinely, each compounds of the present invention is incubated with the enzyme for five minutes prior to addition of substrate to initiate the reaction. Inhibition expressed as IC50 as molar concentration of the compound required to reduce reaction rate to 50% control.

As for `Cc1ccccc1CCc1ccc(NC(=O)C2=C(O)c3ccccc3S(=O)(=O)C2)cc1` [Example 43], the IC50 in assay [1] amounted to 2.06e-05 M. In assay [2] (Concentration 8.00 E -5 M), the “% Inhibition (LDAH)” value was 0.0%.

`O=C(Nc1ccc(CCc2ccccc2O)cc1)C1=C(O)c2ccccc2S(=O)(=O)C1` [Example 38]: the IC50 in assay [1] came to 6.68e-06 M. For the same compound, the “% Inhibition (LDAH)” value in assay [2] (Concentration 2.50 E -5 M) was found to be 0.0%.

As to `COc1ccccc1CCc1ccc(NC(=O)C2=C(O)c3ccccc3S(=O)(=O)C2)cc1` [Example 37, 4-Hydroxy-N-8 4-[2-(2-methoxyphenyl)ethyl]phenyl-2H-1-benzothiopyran-3-carboxamide, 1,1-dioxide], the IC50 in assay [1] turned out to be 1.9e-05 M. For the same compound, the “% Inhibition (LDAH)” value in assay [2] (Concentration 8.00 E -5 M) is on record as 0.0%.

As for `CCCCCCCCc1ccc(NC(=O)C2CS(=O)(=O)c3ccccc3C2=O)cc1` (stereo not shown) [Example 59, 3,4-Dihydro-N-(4-octylphenyl)-4-oxo-2H-1-benzothiopyran-3-carboxamide, 1,1-dioxide], the IC50 in assay [1] came out at 7.29e-06 M. Moreover, in assay [2] (Concentration 2.50 E -5 M), the “% Inhibition (LDAH)” value was determined as 0.0%.

For the compound `CCCCCCc1ccc(NC(=O)C2CS(=O)(=O)c3ccccc3C2=O)cc1` (stereo not shown) [Example 58, N-(4-Hexylphenyl)-3,4-dihydro-4-oxo-2H-1-benzothiopyran-3-carboxamide, 1-1-dioxide], the IC50 in assay [1] amounted to 8.47e-06 M. In addition, the “% Inhibition (LDAH)” value in assay [2] (Concentration 8.00 E -5 M) was determined as 0.0%.

As for `O=C(Nc1ccc(CCc2ccc(O)c(O)c2)cc1)C(=O)c1sc2ccccc2c1O` [Example 134, N-[4-[2-(3,4-Dihydroxyphenyl)ethyl]phenyl]-3-hydroxy-α-oxo-benzo[b]thiophene-2-acetamide], the results for the IC50 in assay [1] and in assay [2] were 6.88e-05 M and 8.2e-06 M, respectively.

With `O=C(Nc1ccc(CCc2ccc(Cl)c(Cl)c2)cc1)C1CS(=O)(=O)c2ccccc2C1=O` (stereo not shown) [Example 11, N-[4-[2-(3,4-Dichlorophenyl)ethyl]phenyl]-3,4-dihydro-4-oxo-2H-1-benzothiopyran-3-carboxamide, 1,1-dioxide], the IC50 in assay [1] worked out at 3.64e-06 M; in assay [2], 1.1e-06 M.

Turning to `O=C(Nc1ccc(CCc2ccc(O)cc2)cc1)C1CS(=O)(=O)c2ccccc2C1=O` (stereo not shown) [Example 40], the IC50 in assay [1] was determined as 5.6e-05 M; in assay [2], 8.2e-05 M.

Take `COc1cccc(CCc2ccc(NC(=O)C3CS(=O)(=O)c4ccccc4C3=O)cc2)c1` (stereo not shown) [Example 39]: the values for the IC50 in assay [1] and in assay [2] were 2.48e-05 M and 5.7e-05 M, respectively.

Consider `O=C(Nc1ccc(CCc2cc(Cl)cc(Cl)c2)cc1)C1=C(O)c2ccccc2S(=O)(=O)C1` [Example 71, 2H-1-Benzothiopyran-3-carboxamide, N-[4-[2-(3,5-dichlorophenyl)ethyl]phenyl]-4-hydroxy-, 1,1-dioxide], for which the values for the IC50 in assay [1] and in assay [2] were 7.46e-06 M and 0.0002 M, respectively.

Take `CCOC(=O)c1ccc(CCc2ccc(NC(=O)C3CS(=O)(=O)c4ccccc4C3=O)cc2)cc1` (stereo not shown) [Example 47, 4-[2-[4-[[(3,4-Dihydro-4-oxo-2H-1-benzothiopyran-3-yl)carbonyl]amino]pheyl]ethyl]benzoic acid, ethyl ester, 1,1-dioxide]: the IC50 in assay [1] came out at 1.11e-05 M. The “% Inhibition (LDAH)” value in assay [2] (Concentration 8.00 E -5 M) is reported as 0.0%.

With `CCCCCCCCCCCCc1ccc(NC(=O)C2CS(=O)(=O)c3ccccc3C2=O)cc1` (stereo not shown) [Example 61, N-(4-Dodecylphenyl)-3,4-dihydro-4-oxo-2H-1-benzothiopyran-3-carboxamide, 1,1-dioxide], the IC50 in assay [1] was 2e-05 M and 2.05e-05 M; in assay [2], 1e-06 M.

On to `CC(=O)Nc1ccc(CCc2ccc(NC(=O)C3CS(=O)(=O)c4ccccc4C3=O)cc2)cc1` (stereo not shown) [Example 49], for which the IC50 in assay [1] amounted to 0.000149 M; in assay [2] it was 3.5e-05 M.

Consider `O=C(Nc1ccc(CCc2ccc(O)c(O)c2)cc1)C(=O)c1sc2ccc(Cl)cc2c1O` [Example 138, Benzo[b]thiophene-2-acetamide, 5-chloro-N-[4-[2-(3,4-dihydroxyphenyl)ethyl]phenyl]-3-hydroxy-α-oxo], for which the IC50 in assay [1] turned out to be 0.000113 M; in assay [2], 3.3e-05 M.

For `Cc1ccc(CCc2ccc(NC(=O)C3CS(=O)(=O)c4ccccc4C3=O)cc2)cc1` (stereo not shown) [Example 45], the IC50 in assay [1] was determined as 9.44e-06 M. In addition, in assay [2] (Concentration 8.00 E -5 M), the “% Inhibition (LDAH)” value turned out to be 0.0%.

`O=C(Nc1ccc(CCc2ccc(Cl)cc2Cl)cc1)C1=C(O)c2ccccc2S(=O)(=O)C1` [Example 72, 2H-1-Benzothiopyran-3-carboxamide, N-[4-[2-(2,4-dichlorophenyl)ethyl]phenyl]-4-hydroxy-1,1-dioxide]: the IC50 in assay [1] worked out at 3.5e-06 M; in assay [2], 2.6e-06 M.

Take `O=C(Nc1ccc(CCc2cccc(O)c2)cc1)C1CS(=O)(=O)c2ccccc2C1=O` (stereo not shown) [Example 82]: the IC50 in assay [1] was determined as 3.95e-05 M. Moreover, the “% Inhibition (LDAH)” value in assay [2] (Concentration 8.00 E -5 M) was determined as 0.0%.
